# Measurements taken from patent US6803385B2, “Hydroxyeicosatetraenoic acid analogs and methods of their use in treating dry eye disorders” (Alcon, Inc., priority 1999, dated 2004).
# System: rabbit model of dry eye (corneal staining)
# Experiment: Inhibition of corneal staining in a rabbit model of dry eye (ConA lacrimal gland inflammation plus desiccation, methylene blue uptake)
# Type: in vivo, New Zealand white rabbits
# Settings: 1 μM, topical QID 50 μl, methylene blue corneal staining (A660) vs BSS vehicle
# Protocol: Compounds 173 and 175 were evaluated for their ability to inhibit corneal staining in a rabbit model of dry eye, as per the following experimental protocol.
# New Zealand white (NZA) rabbits (approximately 2.5 kg) were obtained from Myrtle's Rabbitry (Thompson Station, Tenn.). Animals were maintained in a controlled environment with a 12-hour on/off light cycle at 65±5° F. and at least 30% humidity. All aspects of animal handling, housing and experimentation conformed to the ARVO Statement for the Use of Animals in Ophthalmic and Vision Research.
# Rabbits were randomized and dosed topically QID with 50 μl of test article or BSS® solution beginning 24 hours prior to lacrimal gland injection. […]
# Desiccation was initiated three days following ConA injection by placing conscious rabbits into an environmental chamber (20%-30% humidity/75° F.). […] The concentration of the extracted dye was determined spectrophotometrically by measuring its absorbance at λ=660 nanometers (A660). Data are expressed as mean±standard deviation (S.D.). Percent inhibition was calculated as {1−[(A660test item−A660Normal)/(A660BSS−A660Normal)]}×100, where A660test item is the absorbance of dye from ConA-injected eyes dosed with the test item, A660Normal is the absorbance of dye from saline-injected eyes, and A660BSS is the absorbance of dye in ConA-injected eyes dosed with BSS® solution vehicle.
smiles,measurement,setting,value
"CCCCC[C@H](O)/C=C/C=C\C/C=C\C/C=C\CCCC(=O)O [Compound 15S-HETE, (15S)-(5Z,8Z,11Z,13E)-15-hydroxy-eicosa-5,8,11,13-tetraenoic acid]",% Inhibition ± S.D.,Experiment 1,70 ± 18%
same,% Inhibition ± S.D.,Experiment 2,77% ± 18%
